Data set [1] relates to TNF production from whole blood stimulated with LPS. The data set can be described thus: Whole blood assay: LPS-induced TNF-α production (L929 fibrosarcoma cell bioassay). Format: cell-based, horse. On the procedure: (§1) A whole blood assay was used to assess the effects of rolipram and doramapimod on cytokine production from leukocytes (white blood cells) in response to bacterial lipopolysaccharide (endotoxin).
(§2) Blood samples (10 mL; sodium citrate anticoagulant) were obtained from the six normal horses, diluted 1:1 with RPMI 1640 cell culture medium and aliquoted into 15×1 mL aliquots. Serial dilutions of rolipram and doramapimod were made from 10^−2M stock solutions in phosphate-buffered saline and DMSO, respectively, and 10 μL added to […] give final concentrations ranging from 10^−10-10^−4 Molar. The samples were then incubated with 100 ng/mL purified bacterial lipopolysaccharide (endotoxin derived from E. Coli O55:B5; purified to remove DNA and protein contaminants). After incubation for 18 hours at 37° C. in a shaking incubator, samples were centrifuged at 300 g and supernatants stored at −80° C. for cytokine analysis.
The proinflammatory cytokine, TNF-α, was measured using a L929 fibrosarcoma cell bioassay. […] The yellow tetrazole dye, 3-(4,5-dimethylthiazol-2-yl)-2,5-diphenyltetrazolium bromide (MTT), is reduced to a purple formazan compound in living cells, which is then quantified using a colorimetric plate reader (absorbance read at 570 nm with reference wavelength of 650 nm). […]
(§3) The data are expressed as % inhibition of LPS-induced cytokine production at each of the drug concentrations. […]

In data set [2] the test system is IL-1 production from whole blood stimulated with LPS. The data set can be described thus: Whole blood assay: LPS-induced IL-1β production (ELISA). Format: cell-based, horse. The procedure: as §1, §2
Plasma IL-1β concentrations were measured using an equine-specific enzyme linked immunosorbent assay (ELISA; Horse IL-1β ELISA kit, Bethyl Laboratories, Montgomery, Tex., USA). […] The optical density (OD) values of samples were determined at 450 nm using an ELISA plate reader (BioTek Synergy H1) and concentrations determined using GENS Software (version 2.00.17).
as §3
(In an ELISA, binding on a coated surface is turned into a signal by an enzyme label.)

Data set [3] in a line: Solubility / formulation for intravenous administration. Format: physicochemical.
Method: Solubility of the drugs was tested to determine their suitability for intravenous administration (this is the route of choice for the treatment of endotoxemia).
Setting [4] is: equine whole blood, LPS, 18 hours.

≈ marks a conversion by molar mass, not a printed value. Like-named read-outs stand apart in the source and are kept apart here.

What is called IC50 is the concentration that gives 50% inhibition.

For `COc1ccc(C2CNC(=O)C2)cc1OC1CCCC1` (stereo not drawn) [rolipram], the IC50 was 653 nM in data set [1] (Equus caballus, L929, equine whole blood diluted 1:1 with RPMI 1640, LPS, 18 hours at 37° C., read-out: IC50, inhibition of TNFa production) and 1020 nM in data set [2] (Equus caballus, equine whole blood diluted 1:1 with RPMI 1640, LPS, 18 hours at 37° C., read-out: IC50, inhibition of IL-1 production). Moreover, the “inhibition of TNFa production at high concentrations” value in data set [1] (setting [4]) is approximately 100%. The “maximum inhibition of IL-1 production” value in data set [2] (setting [4]) was found to be 39.5±7.1%. The solubility is 1000 µg/mL (≈ 3630 µM) in data set [3] (10% DMSO, aqueous with cosolvent or surfactant or cyclodextrin, read-out: soluble in 10% DMSO to) and 200 µg/mL (≈ 726 µM) in data set [3] (water, read-out: water soluble to).

Values taken from patent US11123349B2, “Method of treatment” (The University of Melbourne, priority 2017, dated 2021).
